Data from PMC6151788, “Biological Evaluation and Molecular Docking of Protocatechuic Acid from Hibiscus sabdariffa L. as a Potent Urease Inhibitor by an ESI-MS Based Method” (Molecules : A Journal of Synthetic Chemistry and Natural …, 2017).

Columns and labels:
[1] = molecular target: T1, Jack bean urease (JBU) (Canavalia ensiformis, UniProt P07374); assay: ESI-MS urea depletion assay with purchased jack bean urease; standard inhibitor; format: biochemical
T1 construct: JBU-type III from Canavalia ensiformis

[2] = molecular target: T1, Jack bean urease (JBU); assay: ESI-MS urea depletion assay with purchased jack bean urease; format: biochemical

T1 sequence (P07374 whole entry, looked up): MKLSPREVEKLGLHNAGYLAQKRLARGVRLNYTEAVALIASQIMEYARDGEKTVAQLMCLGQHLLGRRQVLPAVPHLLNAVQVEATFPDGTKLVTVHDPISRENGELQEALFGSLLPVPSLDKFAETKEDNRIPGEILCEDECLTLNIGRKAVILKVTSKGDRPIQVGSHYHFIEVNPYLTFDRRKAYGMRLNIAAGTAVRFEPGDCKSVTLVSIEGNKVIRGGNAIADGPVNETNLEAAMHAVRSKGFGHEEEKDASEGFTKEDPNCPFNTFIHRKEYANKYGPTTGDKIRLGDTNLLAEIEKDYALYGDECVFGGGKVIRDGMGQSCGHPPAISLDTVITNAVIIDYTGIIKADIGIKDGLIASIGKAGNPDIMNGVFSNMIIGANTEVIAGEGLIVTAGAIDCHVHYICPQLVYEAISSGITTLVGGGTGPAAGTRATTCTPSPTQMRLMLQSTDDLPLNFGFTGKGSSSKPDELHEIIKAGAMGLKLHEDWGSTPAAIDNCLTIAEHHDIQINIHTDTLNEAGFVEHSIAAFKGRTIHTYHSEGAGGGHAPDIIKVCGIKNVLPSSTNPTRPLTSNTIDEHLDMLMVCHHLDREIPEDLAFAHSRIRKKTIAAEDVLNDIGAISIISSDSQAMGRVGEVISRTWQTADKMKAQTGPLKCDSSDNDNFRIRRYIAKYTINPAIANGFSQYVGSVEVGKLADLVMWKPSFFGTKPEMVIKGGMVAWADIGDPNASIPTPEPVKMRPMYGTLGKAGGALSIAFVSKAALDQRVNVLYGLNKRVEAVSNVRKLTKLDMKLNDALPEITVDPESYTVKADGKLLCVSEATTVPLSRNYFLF

Structure (SMILES)	IC50 [1] [µM]	IC50 [2] [µM]
CC(=O)NO [AHA, acetohydroxamic acid]	3.2	–
O=C(O)c1ccc(O)c(O)c1 [PCA, 3,4-dihydroxybenzoic acid]	–	1.7
